Reference: article PMC8571951, “An activity‐based bioprobe differentiates a novel small molecule inhibitor from a LOXL2 antibody and provides renewed promise for anti‐fibrotic therapeutic strategies” (Clinical and Translational Medicine, 2021)

Tests used:
Recombinant human LOXL1 = molecular target: T1, Recombinant human LOXL1 (Homo sapiens, UniProt Q08397); assay: Standard Amplex Red assay, rh LOXL1; format: biochemical; details: 30 min pre-incubation
T1 sequence (Q08397 96-574): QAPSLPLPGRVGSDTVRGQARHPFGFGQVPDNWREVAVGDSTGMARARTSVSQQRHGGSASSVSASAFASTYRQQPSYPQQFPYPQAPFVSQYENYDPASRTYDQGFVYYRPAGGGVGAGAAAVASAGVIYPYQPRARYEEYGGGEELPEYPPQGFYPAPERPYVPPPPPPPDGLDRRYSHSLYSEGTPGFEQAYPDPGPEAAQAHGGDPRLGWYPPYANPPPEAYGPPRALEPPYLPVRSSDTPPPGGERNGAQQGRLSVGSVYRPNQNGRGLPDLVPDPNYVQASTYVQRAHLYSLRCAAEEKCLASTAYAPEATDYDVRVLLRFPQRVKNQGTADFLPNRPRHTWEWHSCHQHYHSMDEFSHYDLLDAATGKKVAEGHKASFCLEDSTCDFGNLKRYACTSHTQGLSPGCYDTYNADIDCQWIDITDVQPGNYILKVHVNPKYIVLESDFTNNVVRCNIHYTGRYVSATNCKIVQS
From the text: (§1) FIGURE 1 Characteristics of the activity‐based probe (ABP) PXS‐5878. (A) Chemical structure of PXS‐5878, with functional subunits denoted with different colours. The fluoroallylamine moiety (blue) was designed to interact with the lysine tyrosylquinone (LTQ) co‐factor within the lysyl oxidase active sites. An extended linker (green) was incorporated to provide optimal separation between the reactive functional group and the tag, avoiding unfavourable steric hindrance. Biotin was selected as a tag, with higher sensitivity found to be achieved using a double tag (red), resulting in PXS‐5878 as the preferred ABP. (B) Concentration‐dependent inhibition of recombinant human (rh) lysyl oxidase‐like 1‐4 (LOXL1‐4) and native bovine LOX in a standard Amplex Red assay with 30 min pre‐incubation; n = 3–4 independent experiments, standard error of mean (SEM). Native bovine LOX was used as a surrogate for human LOX as both enzymes have similar pharmacology for fluoroallylamines.[2], [9] (C) Irreversible nature of PXS‐5878 enzyme inhibition confirmed using a jump dilution assay. […]
(§2) FIGURE 2 Characteristics of PXS‐5338 and inhibition of lysyl oxidase‐like 2 (LOXL2) enzymatic activity in vitro and in vivo. […] (B) Tissue levels of PXS‐5338 measured 1 and 4 h after a single oral dose of 30 mg/kg in the rat. […]

LOXL3 = molecular target: T2, LOXL3 (Homo sapiens, UniProt P58215); assay: Standard Amplex Red assay, rh LOXL3; format: biochemical; details: 30 min pre-incubation
T2 sequence (P58215 26-753): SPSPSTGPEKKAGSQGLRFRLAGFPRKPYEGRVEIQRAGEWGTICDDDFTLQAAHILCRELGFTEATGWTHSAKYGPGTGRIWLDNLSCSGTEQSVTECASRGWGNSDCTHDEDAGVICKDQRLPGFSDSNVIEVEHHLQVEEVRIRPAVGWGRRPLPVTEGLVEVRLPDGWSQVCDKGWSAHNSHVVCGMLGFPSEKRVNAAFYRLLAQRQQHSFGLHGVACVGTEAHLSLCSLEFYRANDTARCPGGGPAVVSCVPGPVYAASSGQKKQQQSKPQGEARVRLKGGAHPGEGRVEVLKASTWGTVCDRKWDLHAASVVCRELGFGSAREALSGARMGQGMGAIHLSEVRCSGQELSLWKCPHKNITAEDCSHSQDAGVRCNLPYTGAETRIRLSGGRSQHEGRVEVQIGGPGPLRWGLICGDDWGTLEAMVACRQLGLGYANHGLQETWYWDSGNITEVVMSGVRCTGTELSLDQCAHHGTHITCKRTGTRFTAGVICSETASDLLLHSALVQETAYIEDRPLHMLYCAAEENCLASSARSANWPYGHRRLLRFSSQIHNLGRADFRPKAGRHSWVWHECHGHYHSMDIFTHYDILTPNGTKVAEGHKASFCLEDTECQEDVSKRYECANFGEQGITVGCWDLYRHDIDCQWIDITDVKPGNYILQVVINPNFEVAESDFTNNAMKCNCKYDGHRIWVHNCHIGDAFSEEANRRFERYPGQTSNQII
From the text: as §1, §2

Row | IC50 (Recombinant human LOXL1) | IC50 (LOXL3) | SMILES
1 | 2530 nM | 385 nM | CC(C)c1c(Cc2ccc(S(C)(=O)=O)nc2)c2ncccc2n1C/C(F)=C/CN [PXS-5338]
2 | 1770 nM | 973 nM | NC/C=C(\F)CS(=O)(=O)c1cccc(Cn2cc(-c3cc(OCCCc4cn(CCCCC[C@@H]5SC[C@@H]6NC(=O)N[C@@H]65)nn4)cc(OCCCc4cn(CCCCC[C@@H]5SC[C@@H]6NC(=O)N[C@@H]65)nn4)c3)nn2)c1 [PXS-5878]
